Reference: patent US6784167B2, “17-beta-hydroxysteroid dehydrogenase-II inhibitors” (Bayer Pharmaceuticals Corporation, priority 2000, dated 2004)
Where two headings read alike, the source gives them in different places.

Assays:
17-Beta HSD II Enzyme = biological target: T1, 17-Beta HSD II Enzyme (Homo sapiens, UniProt P37059); test: Primary assay: inhibition of 17-Beta HSD II enzyme (estradiol/NAD, PMS:MTS colorimetric readout at 490 nm); format: biochemical; settings: Table 7, baculovirus-expressed recombinant HSD II, estradiol substrate
T1 construct: made in house; host or cells: insect cells (baculovirus)
T1 sequence (P37059 1-387): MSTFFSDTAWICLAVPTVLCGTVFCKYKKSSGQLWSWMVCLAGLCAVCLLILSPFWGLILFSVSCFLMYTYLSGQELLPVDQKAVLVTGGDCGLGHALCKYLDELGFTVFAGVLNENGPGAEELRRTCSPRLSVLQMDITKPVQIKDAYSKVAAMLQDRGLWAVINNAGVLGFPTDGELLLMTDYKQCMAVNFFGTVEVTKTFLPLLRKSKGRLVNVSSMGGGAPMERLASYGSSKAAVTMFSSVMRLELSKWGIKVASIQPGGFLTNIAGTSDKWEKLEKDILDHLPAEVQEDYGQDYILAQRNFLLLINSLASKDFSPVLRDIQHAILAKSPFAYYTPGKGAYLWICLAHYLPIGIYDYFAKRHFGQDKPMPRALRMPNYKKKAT
Experimental: HSD II protein purification: The method for purification of baculovirus-expressed HSD II was standardized as follows. The insect cell pellet containing recombinant HSD II was lysed in 2.5 volumes of lysis buffer (40 mM Tris, pH 7.5, 1 mM EDTA, 2 mM DTT, 10 uM NAD) containing 500 uM AEBSF, 10 ug/ml aprotinin, 1 uM pepstatin A, and 100 uM leupeptin. The pellet was nutated for 30 min in this buffer. Subsequently, the pellet was homogenized with 15 strokes using a glass and teflon potter. The volume was doubled with a 2× sucrose/NaCl solution (500 mM sucrose, 300 mM NaCl in lysis buffer). After centrifugation at 10,000×g for 30 min, the supernatant was decanted and stored at −20° C. The pellet was resuspended in 2.5 volumes of lysis buffer containing 250 mM sucrose and 150 mM NaCl. Homogenization was repeated (15 strokes) and the suspension was centrifuged again and the decanted supernatant was stored at −20° C. The pellet was resuspended with 2 times the original pellet volume in lysis buffer containing 150 mM NaCl and 1% Triton X-100. The suspension was nutated for 20 min and then homogenized with 5 strokes. Subsequently, the suspension was centrifuged at 30,000×g for 1 h and supernatant was decanted and poured into a chromatographic column. Sephadex G-25 (fine) was added in small amounts, allowing approximately 15 min after each addition for complete swelling. Sephadex addition was continued until all liquid was absorbed. The protein was eluted with 1 void volume of lysis buffer and eluate monitored at 280 nm optical density. The chromatographic procedure was repeated and an equal volume of glycerol was added to the final eluate.
Primary assay: After titration, the HSD II prep, generated with the standard protocol, was diluted to the appropriate concentration (generally 1/15 dilution). 55 μl of assay buffer (50 mM Hepes, pH 8.0) was added to all wells of a 96 well plate. 5 μl of 5% DMSO were added to wells A1-C1, A2-C2, F1-H1, and F2-H2. A 10 μl aliquot of a 10 mM solution in DMSO of each compound was diluted in 190 μl of assay buffer. The plate with these compound dilutions was then mixed for 15 min on a shaker and a 5 μl aliquot from each well was added to the […]. This was followed by 10 μl of HSD II enzyme ( 1/15 dilution)/estradiol mix in assay buffer containing 1% Triton X-100. The estradiol […] from a 20 mM estradiol DMSO stock solution, which was diluted 1/20 (50 μl/ml) in 50 mM Hepes buffer containing 1% Triton X-100. All wells, except F1-H1 and F2-H2, also received 10 μl of 25 mg/ml NAD (SIGMA) in 100 mM Hepes, pH 9. The blank wells F1-H1 and F2-H2 received 10 μl of NAD buffer. 20 μl of PMS:MTS solution (100 μl PMS into 1800 μl MTS, Promega) was added to all wells. The plate was covered with aluminum foil and incubated at room temperature for 1.5 h. The plate was analyzed at 490 nm on a Hewlett Pachard 8453 spectrophotometer and results were calculated.

[1] = read-out: IC50 values ≧2 μM and <10 μM

IC50 (17-Beta HSD II Enzyme; [1]) [µM] | melting point | IC50 (17-Beta HSD II Enzyme) [µM] | Structure (SMILES)
2 to 10 | 50 to 52 °C | – | CN1C(=O)C[C@H](c2ccccc2)[C@@H]1[C@H](O)Cc1cccc(Cl)c1 (relative stereo) [Example 9, (±)-(4R*,5R*)-5-[(1R*)-2-(3-chlorophenyl)-1-hydroxyethyl]-1-methyl-4-phenylpyrrolidin-2-one]
– | 123 to 125 °C | < 0.5 | CN1C(=O)CC(c2ccccc2)C1C(O)c1ccc(CCc2ccc(F)cc2)s1 (stereo not drawn) [Example 57]
– | 184 to 186 °C (dec.) | < 0.5 | CN1C(=O)CC(c2ccccc2)C1C(O)c1ccc(-c2ccc(O)cc2)s1 (stereo not drawn) [Example 52]
2 to 10 | 187 °C | – | CSc1ccc(-c2ccc([C@@H](O)[C@H]3[C@@H](c4ccccc4)CC(=O)N3C)s2)cc1 (racemic) [Example 69]
– | 247 °C | < 0.5 | CN1C(=O)CC(c2ccccc2)C1C(O)c1ccc(S(=O)(=O)c2ccccc2)s1 (stereo not drawn) [Example 70]
– | 216 °C (dec.) | < 0.5 | CN1C(=O)C[C@H](c2ccccc2)[C@@H]1[C@H](O)c1ccc(-c2ccccc2)s1 [Example 145]
– | 195 °C | < 0.5 | CN1C(=O)C[C@H](c2cccc(F)c2)[C@@H]1[C@H](O)c1ccc(-c2ccc(F)cc2)s1 (racemic) [Example 85]
2 to 10 | 210 °C | – | CN1C(=O)C[C@H](c2ccccc2)[C@@H]1[C@H](O)c1cccc(-c2ccc(F)cc2)c1 (racemic) [Example 104]
2 to 10 | 129 to 130 °C | – | CN1C(=O)C[C@H](c2ccccc2)[C@@H]1[C@H](OCc1ccccc1)c1cccs1 [Example 140]
2 to 10 | 217 to 218 °C | – | CN1C(=O)C[C@H](c2ccccc2)[C@@H]1[C@H](O)C#Cc1ccc(-c2ccccc2)cc1 (racemic) [Example 136]
– | 193 °C | < 0.5 | CN(C)c1cccc(-c2ccc(C(O)C3C(c4ccccc4)CC(=O)N3C)s2)c1 (stereo not drawn) [Example 74]
– | 199 °C | < 0.5 | CN1C(=O)C[C@H](c2ccccc2)[C@@H]1[C@H](O)c1ccc(-c2cccc(NS(C)(=O)=O)c2)s1 (racemic) [Example 73]
– | 175 to 177 °C | < 0.5 | Cc1c(C(O)C2C(c3ccccc3)CC(=O)N2C)sc2ccc(F)cc12 (racemic) [Example 53]
– | 190 °C | < 0.5 | CN1C(=O)CC(c2ccccc2)C1C(O)c1ccc(-c2cccc(N)c2)s1 (stereo not drawn) [Example 67]
2 to 10 | 100 °C | – | CN1C(=O)CC(c2ccccc2)C1C(O)c1ccc(-c2cccc([N+](=O)[O-])c2)o1 (stereo not drawn) [Example 123]
